Key:
[1] = system: naïve allogenic T lymphocytes; test: Stimulation of IL-2 and γIFN secretion by allogenic T lymphocytes (mixed leukocyte reaction, ELISA); assay type: cell-based, human; parameters: unit not given here; conditions: for Secretion of IL-2 by T lymphocytes / Secretion of γIFN by T lymphocytes: after 4 days; for Secretion of γIFN by T lymphocytes: Table 3; for Dendritic cell-induced secretion of γIFN by T lymphocytes: Table 8
Experimental: The “control” and “LPC” cells used in this analysis are those obtained after 6 days of differentiation according to the protocol described in example 1.
Naïve allogenic T lymphocytes are isolated from human peripheral blood. Peripheral blood mononuclear cells are isolated by density gradient centrifugation (600 g, 20 minutes) in the presence of Ficoll-Hypaque. After elimination of the monocytes on a Percoll gradient, the peripheral blood lymphocytes are found in the dense fraction. The T lymphocytes are purified by immunomagnetic depletion using a cocktail of anti-CD19 (antibody 4G7) (Becton Dickinson, Francklin Lakes, N.J., USA), anti-CD16 (antibody 3G8), anti-CD56 (antibody NKH1), anti-glycophorin A (antibody 11E4B7.6) and anti-CD14 (antibody RMPO52), monoclonal antibodies sold by Beckman Coulter.
The purified T lymphocytes are cultured in flat-bottomed 96-well culture plates with the “control” or “LPC” cells.
2×10^5T cells are cultured in 200 μl of culture medium according to a monocytes differentiated in the presence or absence of LPC/T cells ratio (DC/LT ratio) of 1:5, 1:10 or 1:20. After 4 days, 50 μl of the culture supernatant are used to determine the secretion of IL-2 (interleukin 2) and of γIFN (gamma interferon) using an ELISA kit (Endogen, Woburn, Mass., USA).
The inventors then used a PPARγ agonist, ciglitizone. A solution of ciglitizone (Sigma, 50 μM) was added to the culture medium on the fifth day of monocyte differentiation, as described in example 1, 15 minutes before the addition of a solution of LPC (40 μM, for […]). The cells obtained are “LPC+ciglitizone” cells. “Ciglitizone” cells were obtained according to the same protocol, but in the absence of LPC, and “LPC” cells were obtained as described in example 1, in the absence of ciglitizone.
The functional ability of these cells (“control”, “ciglitazone” and “LPC+ciglitazone” cells) to stimulate T lymphocytes (LT) were then analyzed. These cells were cultured as described in example 4, in the presence of purified allogenic T lymphocytes. The secretion of γIFN was measured as in example 4.

BALB/c mice = test: Inflammation of the plantar foot pad (thickening of the foot); assay type: in vivo, mouse; conditions: after 24 h
Experimental: LPC is an inflammatory product—In this example, a solution of 100 to 500 nmol of LPC dissolved in 50 μl of PBS is injected into the plantar foot pad of BALB/c mice (Charles River Laboratories) on day 0. The plantar foot pads are measured using a micrometer before and after injection, up to the 10th day, and compared to the plantar foot pads of “control” mice, obtained by injection of PBS (50 μl). The intensity of the inflammation is reflected by the thickening of the foot. The maximum thickening is observed on the 1st day, 24 h after the injection.
INTRALIPID® blocks the inflammation and the immune response induced by LPC, in vivo. In this example, 3 batches of BALB/c mice are immunized against the hen egg lysozyme (HEL) antigen by injection of 50 μl of solution into the plantar foot pad. The “HEL” control batch receives 50 μg of HEL, the “HEL+Intralipid” batch receives a mixture of INTRALIPID® (45 μl) and of 50 μg of HEL (5 μl of a solution at 10 mg/ml). The “HEL+LPC” batch receives 50 μg of HEL with 350 nmol of LPC dissolved in PBS. The “HEL+LPC+Intralipid” batch receives 50 μg of HEL mixed with 350 nmol of LPC dissolved in 45 μl of INTRALIPID®. After 24 hours, the thickness of the foot pads is measured using a micrometer, and compared with the measurement taken before injection. The difference in thickness is proportional to the intensity of the inflammation.

[2] = system: Gi protein-coupled receptors; test: Induction of CD86 by LPC after preincubation with pertussis toxin; assay type: cell-based, human; conditions: LPC cells = 100%; PTX 100 ng/ml for 3 hours before LPC
Experimental: The phenotype of the “control” and “LPC” cells is analyzed by flow cytometry on a FACSCalibur (Becton Dickinson, Francklin Lakes, N.J., USA) using FITC (fluorosceine isothiocyanate)-conjugated anti-CD14, anti-HLA-DR and anti-CD80 and PE (phycoerythrin)-conjugated anti-CD1a, anti-CD83, anti-CD86 and anti-CD40 (Beckman Coulter). According to the state of the art, monocytes preferentially have a CD14+ CD1a− phenotype, immature dendritic cells preferentially have a CD14− CD1a+CD86− phenotype, and mature dendritic cells preferentially have a CD14− CD1a intermediate—CD86+ phenotype.
Initially, in order to determine whether the receptors involved in the action of LPC in the differentiation of monocytes into mature dendritic cells belonged to the family of G protein-coupled receptors, PTX (pertussis toxin; 100 ng/ml), known to block Gi proteins, was added to the culture medium for 3 hours. The culture medium was then changed and the LPC was added as described in example 1.

With L-α-lysophosphatidylcholine [LPC] the “Secretion of IL-2 by T lymphocytes” value ([1]; DC/LT ratio 0) was 0, the “Secretion of IL-2 by T lymphocytes” value ([1]; DC/LT ratio 0.05) was 23 ± 1 and the “Secretion of IL-2 by T lymphocytes” value ([1]; DC/LT ratio 0.1) was 47 ± 26. The “Secretion of IL-2 by T lymphocytes” value ([1]; DC/LT ratio 0.2) was 173 ± 31, the “Secretion of γIFN by T lymphocytes” value ([1]; DC/LT ratio 0) was 0 and the “Secretion of γIFN by T lymphocytes” value ([1]; DC/LT ratio 0.05) was 73 ± 47. For the same substance, the “Secretion of γIFN by T lymphocytes” value ([1]; DC/LT ratio 0.1) was 439 ± 108, the “Secretion of γIFN by T lymphocytes” value ([1]; DC/LT ratio 0.2) was 795 ± 19 and the “Dendritic cell-induced secretion of γIFN by T lymphocytes” value (from here on “Dendritic cell-induced secretion”) ([1]; DC/LT ratio 0) was 0. For the same substance, the “Dendritic cell-induced secretion” value ([1]; DC/LT ratio 0.05) was 750 ± 184, the “Dendritic cell-induced secretion” value ([1]; DC/LT ratio 0.1) was 899 ± 124 and the “Dendritic cell-induced secretion” value ([1]; DC/LT ratio 0.2) was 1326 ± 248. The “Thickening of the foot” value (BALB/c mice; LPC 100 nmol in 50 μl PBS into plantar foot pad) was 0.35 mm, the “Thickening of the foot” value (BALB/c mice; LPC 200 nmol) was 0.55 mm and the “Thickening of the foot” value (BALB/c mice; LPC 300 nmol) was 0.725 mm. The “Thickening of the foot” value (BALB/c mice; LPC 400 nmol) was 1.125 mm, the “Thickening of the foot” value (BALB/c mice; LPC 500 nmol) was 1.075 mm and the “Induction of CD86” value [2] was 100%.

Source: patent US7368287B2, “Use of L-α-lysophosphatidylcholine to obtain the differentiation of monocytes into mature dendritic cells in vitro” (Biomerieux, priority 2002, dated 2008)
